{
  "source": "patent US20120005765A1",
  "about": "“ANIMAL MODEL FOR PARKINSON'S DISEASE” (Saint Louis University, priority 2010, published 2012)",
  "key": {"[1]": {"system": "DA SN neurons", "assay": "TH and NeuN immunohistochemistry after ALDH1A1 antisense injections into substantia nigra", "type": "in vivo, rat", "procedure": "(§1) Determination of DOPAL-induced Parkinson's disease-like behavior Injections of DOPAL or ALDH1A1 antisense oligo into rat SN. To determine if increased levels of DOPAL in SN produces a behavioral model of PD, 3 groups of rats were tested: unilateral SN injection of 4 μg DOPAL in 6 rats; unilateral SN injection of 0.56 μg antisense oligonucleotide (oligo) targeted to aldehyde dehydrogenase (ALDH1A1) mRNA, the DOPAL catabolic enzyme in 3 rats; 5 non-injected rats. After 5-7 weeks, rats were injected with apomorphine (0.4 mg/kg, subcutaneously) and rotational asymmetry determined in each group just prior to sacrifice. After the brains were fixed and sectioned, the SN, and forebrain were stained immunohistochemically for tyrosine hydroxylase immunoreactivity (THir). See Section 3.\nAn antisense compound was used to decrease expression of ALDH1A1, which is responsible for breaking down DOPAL within the neuronal cell body and its effects on dopamine SN neurons and behavior were examined (FIGS. 6, 7). Three unilateral injections (total 800 nl; 700 pg/nl) of an antisense compound oligonucleotide (SEQ ID NO: 1), directed against the enzyme ALDH1A1, and comprising a phosphorothioate backbone, were made into the substantia nigra nucleus of the rat. The injections were placed in the pars compacta portion of the substantia nigra, the subnucleus where most of the dopaminergic neurons are found."}, "[2]": {"system": "rats", "assay": "Rotational asymmetry after apomorphine", "type": "in vivo, rat", "details": "apomorphine 0.4 mg/kg, n=7", "procedure": "as §1\nDetermination of rotational asymmetry. Rats first were injected subcutaneously with the dopamine agonist apomorphine (0.4 mg/kg) dissolved in 0.1 ascorbate saline solution. After waiting 5 min in their home cage, they were placed in a hemispheric rotation bowl 40 cm wide and 20 cm deep. Rotational behavior was then determined for 30 min and the number of ipsilateral and contralateral turns quantified by observation.\nRotational asymmetry was assessed to quantify the effect of unilateral depletions of striatal dopamine from disruptions of nigrostriatal circuitry. The rotational asymmetry behavior of rats (n=6) changed dramatically after injections with DOPAL (FIG. 5).\nBehavioral asymmetry is considered the standard behavioral test for rodent models of Parkinson's disease. The column on the right is a summary of all the behaviors recorded in the rotational asymmetry test for all the rats ([…])."}, "[3]": {"system": "ALDH1A1", "assay": "Antisense inhibition of ALDH1A1 expression in rat substantia nigra, immunoblot", "type": "in vivo", "details": "1 week or 2 weeks; for optical density of ALDH1A1 Western blot bands, ipsilateral vs contralateral: Unscan software", "procedure": "Antisense inhibition of ALDH1A1 expression in rats.\nThe immunoreactive bands of the Western blot of FIG. 8 were analyzed by Unscan it soft ware (Silk Scientific) and their optical densities plotted in FIG. 9."}, "[4]": {"system": "PC12 cells", "assay": "DOPAL toxicity in vitro, viable PC12 cell count (trypan blue)", "procedure": "Determination of DOPAL toxicity in vitro Toxicity experiments were essentially as described previously. PC12 cultures were initially expanded in T-75 flasks with 20 ml Dulbecco's Modified Eagle's Medium supplemented with 4.5 g/l glucose, 4 mM L-glutamine, 5% fetal calf serum, 10% horse serum, 1000 units/l penicillin, and 100 mg/l streptomycin. Cells were transferred to six well culture plates with 2 ml media and grown to 1.5×10^5 cells/well, treated with 50 ng/ml nerve growth factor (NGF), and maintained in NGF-containing media for 7 d prior to experimentation. The medium was changed every 2-3 d. […] During the experiments, the medium was replaced once a day. Cells were detached with buffered saline containing EDT A, centrifuged at 200×g and resuspended in trypan blue for counting of viable cells. […] DOPAL and other compounds were added as described in the description of the figure and examples. Data was analyzed by ANOVA.\nDOPAL, as well as other physiologically metabolites and adducts, were added to PC12 cells in culture at concentrations that were physiologically relevant."}, "[5]": {"target": "α-synuclein (Homo sapiens, UniProt P37840)", "assay": "DOPAL-triggered α-synuclein aggregation in test tube, Western blot", "type": "biochemical", "details": "AS 2 μM, 37° C., up to 4 h, DOPAL 1.5-1,500 μM", "procedure": "Determination of DOPAL-triggered α-synuclein aggregation in vitro. Western blot of DOPAL-triggered AS aggregation in test tube experiments. DOPAL was dissolved in 1% benzyl alcohol, then diluted to a final concentration of 1.5-1,500 μM as described previously. AS (2 μM) was incubated at 37° C. in 20 μl of 100 mM tris-HCl buffer (pH 7.2) with or without DA, DOPAL, DOPAC, or homovanillic acid (HVA) for up to 4 h. The reaction was stopped by heating at 70° C. for 3 min in SDS buffer. The entire mixture was transferred to the appropriate gel (vide infra).\nSDS-PAGE and immunoblotting. Ten micrograms of protein (estimated by Bio Rad protein reagent) was resolved by electrophoresis on 4-12% bis-tris gels run with MES SDS buffer, and 3-8% tris-acetate gels using tris-acetate running buffer. For immunoblotting, the protein was transferred to PVDF blotting membranes with […] pore size, blocked with 5% milk protein in tris buffered saline (TBS) containing 0.1% Tween 20, and incubated for 1 h with a AS 202 monoclonal antibody (1:2,500 dilution). Blots were washed five times with 5% milk protein in TBS and probed with horseradish peroxidase-conjugated anti-mouse secondary antibody (1:2,500). Blots were washed five times with TBS containing. 0.5% Tween 20 before detection with Super Signal (Pierce).\nWestern blot analysis was performed to analyze DOPAL-induced aggregation of α-synuclein (FIG. 1). […]"}, "[6]": {"system": "ALDH", "details": "Lamensdorf et al. 2000; cited from earlier work"}, "[7]": {"details": "Experiment 1, 66 μM, None 299 ± 19"}},
  "note": "Entries after “also recorded” stand apart in the source; their conditions may differ. Like-named read-outs stand apart in the source and are kept apart here.",
  "data": [
    {"molecule": "5″-TGCAGGGGAAGACATTGCTGGT-3″ [Antisense 1]", "values": [
      {"measurement": "neurons immediately adjacent to the injection site, Neun immunostaining", "setting": "[1]; case R2504", "result": "have died"},
      {"measurement": "intensity of TH staining in the injected SN", "setting": "[1]; three unilateral injections, total 800 nl, 700 pg/nl", "result": "slightly less"},
      {"measurement": "dopaminergic projections to rostral brain / ventral striatum, TH immunostaining", "setting": "[1]; three unilateral injections, total 800 nl, 700 pg/nl, 5 or 7 weeks, listed as SEQ ID NO: 1", "result": "dramatically reduced; also recorded: absent/decreased"},
      {"measurement": "rotational asymmetry after unilateral antisense injection into SN", "setting": "[2]", "result": "dramatic shifts in its rotational preference"},
      {"measurement": "ALDH1A1 protein, ipsilateral injected side vs contralateral side, Western blot", "setting": "[3]", "result": "Loss of ALDH1A1"},
      {"measurement": "ALDH1A1 protein, ipsilateral injected side vs contralateral side, Western blot", "setting": "[3]; listed as antisense 1", "result": "loss of ALDH1A1 protein"},
      {"measurement": "optical density of ALDH1A1 Western blot bands, ipsilateral vs contralateral", "setting": "[3]", "result": "loss of ALDH1A1"}
    ]},
    {"molecule": "COc1cc(CC(=O)O)ccc1O", "note": "[HVA, homovanillic acid]", "values": [
      {"measurement": "PC 12 cells/well × 103", "setting": "[4]; [7]", "result": "322 ± 20", "unit": "cells/well × 103"},
      {"measurement": "toxic in vitro at physiological levels", "setting": "[4]; PC12 cells in culture", "result": "not"}
    ]},
    {"molecule": "Oc1ccc(CC2NCCc3cc(O)c(O)cc32)cc1O", "note": "(stereo not shown) [Tetrahydropapaveroline]", "values": [
      {"measurement": "PC 12 cells/well × 103", "setting": "[4]; [7]", "result": "346 ± 15", "unit": "cells/well × 103"},
      {"measurement": "toxic in vitro at physiological levels", "setting": "[4]; PC12 cells in culture", "result": "not"}
    ]},
    {"molecule": "NCCc1ccc(O)c(O)c1", "note": "[DA, dopamine]", "values": [
      {"measurement": "toxic in vitro at physiological levels", "setting": "[4]", "result": "not"},
      {"measurement": "PC 12 cells/well × 103", "setting": "[4]; rat, 66 μM", "result": "329 ± 21", "unit": "cells/well × 103"},
      {"measurement": "aggregation of α-synuclein oligomers in vitro", "setting": "[5]", "result": "not"}
    ]},
    {"molecule": "C=C(C)[C@H]1Cc2c(ccc3c2O[C@@H]2COc4cc(OC)c(OC)cc4[C@@H]2C3=O)O1", "note": "[Rotenone, rotenone]", "values": [
      {"measurement": "PC 12 cells/well × 103", "setting": "[4]; Experiment 2, 10 μM, None 143 ± 12", "result": "127 ± 9", "unit": "cells/well × 103"}
    ]},
    {"molecule": "O=C(O)Cc1ccc(O)c(O)c1", "note": "[DOPAC, 3,4-dihydroxyphenylacetic acid]", "values": [
      {"measurement": "toxic in vitro at physiological levels", "setting": "[4]", "result": "not"},
      {"measurement": "PC 12 cells/well × 103", "setting": "[4]; rat, 66 μM", "result": "334 ± 10", "unit": "cells/well × 103"}
    ]},
    {"molecule": "5″-AGCAGACGATCTCTCTCCATT-3″ (DNA, backbone and methylation of C not given here) [Antisense 2, 21-base antisense oligonucleotide complementary to residues 313 to 333 of rat ALDH1A1 mRNA]", "values": [
      {"measurement": "rotational asymmetry after unilateral antisense injection into SN", "setting": "[2]", "result": "dramatic shifts in its rotational preference"},
      {"measurement": "ALDH1A1 protein, ipsilateral injected side vs contralateral side, Western blot", "setting": "[3]", "result": "Loss of ALDH1A1"},
      {"measurement": "ALDH1A1 protein, ipsilateral injected side vs contralateral side, Western blot", "setting": "[3]; listed as antisense 2", "result": "loss of ALDH1A1 protein"},
      {"measurement": "optical density of ALDH1A1 Western blot bands, ipsilateral vs contralateral", "setting": "[3]", "result": "loss of ALDH1A1"}
    ]},
    {"molecule": "O=c1c(-c2ccc(O)cc2)coc2cc(O)ccc12", "note": "[daidzein]", "values": [
      {"measurement": "inhibiting ALDH in PC-12 cells", "setting": "[6]", "result": "effective"}
    ]}
  ]
}
